# Reference: ChEMBL document CHEMBL3885861, “Open TG-GATES”
# Organism: Rattus norvegicus
# Experiment: Open TG-GATES - Regimen: Single
# Assay type: toxicity, organism-based, Sprague-Dawley
# Parameters: regimen Single, gender Male, age 6 weeks
# Conditions: in vivo, po, route gavage; for APTT / Bas / Eos / Fbg / Ht / Lym / MCH / MCHC / MCV / Mono / Neu / PT / Plat / RBC / Ret / WBC: tissue Blood; for KIDNEY_L / KIDNEY_R / KIDNEY_TOTAL: tissue Kidney; for LIVER: tissue Liver; for ALP / ALT / AST / BUN / CRE / Ca / Cl / DBIL / GLC / IP / K / LDH / Na / PL / RALB / TBIL / TC / TG / TP / gamma-GTP: tissue Plasma
# [1] = 30 mg/kg, 3 h, dose level Middle
# [2] = 30 mg/kg, 6 h, dose level Middle
# [3] = 30 mg/kg, 9 h, dose level Middle
# [4] = 30 mg/kg, 24 h, dose level Middle
# [5] = 100 mg/kg, 3 h, dose level High
# [6] = 100 mg/kg, 6 h, dose level High
# [7] = 100 mg/kg, 9 h, dose level High
# [8] = 100 mg/kg, 24 h, dose level High
compound,measurement,setting,value
Cc1cccc(Nc2cc(Cl)nc(SCC(=O)O)n2)c1C [PIRINIXIC ACID],TERMINAL_BW,[1],204.3 g
same,APTT,[1],17.1 s
same,Bas,[1],0%
same,Eos,[1],0.4%
same,Fbg,[1],275 mg/dL
same,Ht,[1],39.7%
same,Lym,[1],77.6%
same,MCH,[1],21.5 pg
same,MCHC,[1],34.3%
same,MCV,[1],62.6 fL
same,Mono,[1],3%
same,Neu,[1],18%
same,PT,[1],12.5 s
same,Plat,[1],130.4 x10_4/uL
same,RBC,[1],634 x10_4/ul
same,Ret,[1],7.9%
same,WBC,[1],74.5 x10_2/uL
same,KIDNEY_L,[1],0.9 g
same,KIDNEY_R,[1],0.9 g
same,KIDNEY_TOTAL,[1],1.8 g
same,LIVER,[1],8.9 g
same,ALP,[1],1689.8 IU/L
same,ALT,[1],49.2 IU/L
same,AST,[1],74 IU/L
same,BUN,[1],9 mg/dL
same,CRE,[1],0.1 mg/dL
same,Ca,[1],11 mg/dL
same,Cl,[1],103.8 meq/L
same,DBIL,[1],0.088 mg/dL
same,GLC,[1],184.2 mg/dL
same,IP,[1],10.1 mg/dL
same,K,[1],3.9 meq/L
same,LDH,[1],65.6 IU/L
same,Na,[1],139.8 meq/L
same,PL,[1],172.4 mg/dL
same,RALB,[1],2.7 g/dL
same,TBIL,[1],0.052 mg/dL
same,TC,[1],79 mg/dL
same,TG,[1],251.8 mg/dL
same,TP,[1],5.8 g/dL
same,gamma-GTP,[1],1 IU/L
same,TERMINAL_BW,[2],205.1 g
same,APTT,[2],16.2 s
same,Bas,[2],0%
same,Eos,[2],1%
same,Fbg,[2],274.6 mg/dL
same,Ht,[2],40.3%
same,Lym,[2],70.8%
same,MCH,[2],20.8 pg
same,MCHC,[2],34.1%
same,MCV,[2],61 fL
same,Mono,[2],2.4%
same,Neu,[2],25.4%
same,PT,[2],12.4 s
same,Plat,[2],117.5 x10_4/uL
same,RBC,[2],661.2 x10_4/ul
same,Ret,[2],7.5%
same,WBC,[2],71.7 x10_2/uL
same,KIDNEY_L,[2],0.9 g
same,KIDNEY_R,[2],0.9 g
same,KIDNEY_TOTAL,[2],1.7 g
same,LIVER,[2],8.2 g
same,ALP,[2],1624.2 IU/L
same,ALT,[2],46.6 IU/L
same,AST,[2],77.8 IU/L
same,BUN,[2],8.8 mg/dL
same,CRE,[2],0.2 mg/dL
same,Ca,[2],10.7 mg/dL
same,Cl,[2],105.4 meq/L
same,DBIL,[2],0.036 mg/dL
same,GLC,[2],177.8 mg/dL
same,IP,[2],10.7 mg/dL
same,K,[2],4.3 meq/L
same,LDH,[2],59.8 IU/L
same,Na,[2],139.6 meq/L
same,PL,[2],149.4 mg/dL
same,RALB,[2],2.6 g/dL
same,TBIL,[2],0.046 mg/dL
same,TC,[2],76.4 mg/dL
same,TG,[2],115.4 mg/dL
same,TP,[2],5.4 g/dL
same,gamma-GTP,[2],1.4 IU/L
same,TERMINAL_BW,[3],204.7 g
same,APTT,[3],15.6 s
same,Bas,[3],0%
same,Eos,[3],0.6%
same,Fbg,[3],267.4 mg/dL
same,Ht,[3],38.8%
same,Lym,[3],78.8%
same,MCH,[3],21.1 pg
same,MCHC,[3],34.3%
same,MCV,[3],61.4 fL
same,Mono,[3],2%
same,Neu,[3],18%
same,PT,[3],12.3 s
same,Plat,[3],121.4 x10_4/uL
same,RBC,[3],631.6 x10_4/ul
same,Ret,[3],7.8%
same,WBC,[3],66.7 x10_2/uL
same,KIDNEY_L,[3],0.9 g
same,KIDNEY_R,[3],0.8 g
same,KIDNEY_TOTAL,[3],1.7 g
same,LIVER,[3],7.9 g
same,ALP,[3],1566.2 IU/L
same,ALT,[3],35.8 IU/L
same,AST,[3],65.8 IU/L
same,BUN,[3],9.6 mg/dL
same,CRE,[3],0.2 mg/dL
same,Ca,[3],10.5 mg/dL
same,Cl,[3],104.2 meq/L
same,DBIL,[3],0.026 mg/dL
same,GLC,[3],185.8 mg/dL
same,IP,[3],11.1 mg/dL
same,K,[3],3.9 meq/L
same,LDH,[3],61.6 IU/L
same,Na,[3],140.6 meq/L
same,PL,[3],122.8 mg/dL
same,RALB,[3],2.6 g/dL
same,TBIL,[3],0.038 mg/dL
same,TC,[3],67.8 mg/dL
same,TG,[3],68.8 mg/dL
same,TP,[3],5.3 g/dL
same,gamma-GTP,[3],1.4 IU/L
same,TERMINAL_BW,[4],211.1 g
same,APTT,[4],16.1 s
same,Bas,[4],0%
same,Eos,[4],1.2%
same,Fbg,[4],216.4 mg/dL
same,Ht,[4],39.1%
same,Lym,[4],76.2%
same,MCH,[4],21.4 pg
same,MCHC,[4],34.5%
same,MCV,[4],61.9 fL
same,Mono,[4],3%
same,Neu,[4],19.6%
same,PT,[4],13 s
same,Plat,[4],110.1 x10_4/uL
same,RBC,[4],632.4 x10_4/ul
same,Ret,[4],6.8%
same,WBC,[4],75.4 x10_2/uL
same,KIDNEY_L,[4],0.9 g
same,KIDNEY_R,[4],0.9 g
same,KIDNEY_TOTAL,[4],1.8 g
same,LIVER,[4],10.2 g
same,ALP,[4],1775.4 IU/L
same,ALT,[4],51.8 IU/L
same,AST,[4],73.4 IU/L
same,BUN,[4],14.4 mg/dL
same,CRE,[4],0.2 mg/dL
same,Ca,[4],10.7 mg/dL
same,Cl,[4],104 meq/L
same,DBIL,[4],0.018 mg/dL
same,GLC,[4],189.6 mg/dL
same,IP,[4],8.6 mg/dL
same,K,[4],4 meq/L
same,LDH,[4],58 IU/L
same,Na,[4],141.6 meq/L
same,PL,[4],111.4 mg/dL
same,RALB,[4],2.6 g/dL
same,TBIL,[4],0.03 mg/dL
same,TC,[4],59.2 mg/dL
same,TG,[4],37.6 mg/dL
same,TP,[4],5.3 g/dL
same,gamma-GTP,[4],1.2 IU/L
same,TERMINAL_BW,[5],203.1 g
same,APTT,[5],16 s
same,Bas,[5],0%
same,Eos,[5],0.8%
same,Fbg,[5],246.6 mg/dL
same,Ht,[5],38.5%
same,Lym,[5],76.8%
same,MCH,[5],21.8 pg
same,MCHC,[5],34.4%
same,MCV,[5],63.3 fL
same,Mono,[5],3%
same,Neu,[5],18.2%
same,PT,[5],12.6 s
same,Plat,[5],113.6 x10_4/uL
same,RBC,[5],607.8 x10_4/ul
same,Ret,[5],7.7%
same,WBC,[5],82.7 x10_2/uL
same,KIDNEY_L,[5],0.9 g
same,KIDNEY_R,[5],0.8 g
same,KIDNEY_TOTAL,[5],1.7 g
same,LIVER,[5],8.8 g
same,ALP,[5],1788.2 IU/L
same,ALT,[5],54.6 IU/L
same,AST,[5],82.6 IU/L
same,BUN,[5],11 mg/dL
same,CRE,[5],0.2 mg/dL
same,Ca,[5],11 mg/dL
same,Cl,[5],102.2 meq/L
same,DBIL,[5],0.046 mg/dL
same,GLC,[5],179.8 mg/dL
same,IP,[5],10.4 mg/dL
same,K,[5],4 meq/L
same,LDH,[5],69.8 IU/L
same,Na,[5],139.2 meq/L
same,PL,[5],156.6 mg/dL
same,RALB,[5],2.5 g/dL
same,TBIL,[5],0.058 mg/dL
same,TC,[5],80.8 mg/dL
same,TG,[5],120.2 mg/dL
same,TP,[5],5.4 g/dL
same,gamma-GTP,[5],1 IU/L
same,TERMINAL_BW,[6],202.6 g
same,APTT,[6],16 s
same,Bas,[6],0%
same,Eos,[6],0.6%
same,Fbg,[6],267.4 mg/dL
same,Ht,[6],39.4%
same,Lym,[6],74%
same,MCH,[6],21.5 pg
same,MCHC,[6],34.3%
same,MCV,[6],62.6 fL
same,Mono,[6],2.4%
same,Neu,[6],22.2%
same,PT,[6],12.1 s
same,Plat,[6],116.2 x10_4/uL
same,RBC,[6],628.6 x10_4/ul
same,Ret,[6],7.5%
same,WBC,[6],72.4 x10_2/uL
same,KIDNEY_L,[6],0.9 g
same,KIDNEY_R,[6],0.9 g
same,KIDNEY_TOTAL,[6],1.7 g
same,LIVER,[6],7.8 g
same,ALP,[6],1738.4 IU/L
same,ALT,[6],52 IU/L
same,AST,[6],81.4 IU/L
same,BUN,[6],9.4 mg/dL
same,CRE,[6],0.2 mg/dL
same,Ca,[6],10.6 mg/dL
same,Cl,[6],104.6 meq/L
same,DBIL,[6],0.036 mg/dL
same,GLC,[6],178.6 mg/dL
same,IP,[6],10.9 mg/dL
same,K,[6],4.3 meq/L
same,LDH,[6],54.6 IU/L
same,Na,[6],139.4 meq/L
same,PL,[6],152.4 mg/dL
same,RALB,[6],2.5 g/dL
same,TBIL,[6],0.052 mg/dL
same,TC,[6],80.4 mg/dL
same,TG,[6],105.4 mg/dL
same,TP,[6],5.3 g/dL
same,gamma-GTP,[6],1.6 IU/L
same,TERMINAL_BW,[7],203.7 g
same,APTT,[7],16.5 s
same,Bas,[7],0%
same,Eos,[7],0.4%
same,Fbg,[7],248 mg/dL
same,Ht,[7],40%
same,Lym,[7],79.6%
same,MCH,[7],21.8 pg
same,MCHC,[7],34.3%
same,MCV,[7],63.6 fL
same,Mono,[7],1.8%
same,Neu,[7],17.8%
same,PT,[7],12.4 s
same,Plat,[7],109.8 x10_4/uL
same,RBC,[7],628.8 x10_4/ul
same,Ret,[7],8.1%
same,WBC,[7],76 x10_2/uL
same,KIDNEY_L,[7],0.9 g
same,KIDNEY_R,[7],0.9 g
same,KIDNEY_TOTAL,[7],1.8 g
same,LIVER,[7],7.8 g
same,ALP,[7],2137.8 IU/L
same,ALT,[7],46 IU/L
same,AST,[7],74.2 IU/L
same,BUN,[7],9.6 mg/dL
same,CRE,[7],0.2 mg/dL
same,Ca,[7],10.5 mg/dL
same,Cl,[7],104.4 meq/L
same,DBIL,[7],0.028 mg/dL
same,GLC,[7],192 mg/dL
same,IP,[7],11 mg/dL
same,K,[7],4 meq/L
same,LDH,[7],58.8 IU/L
same,Na,[7],140.8 meq/L
same,PL,[7],115.2 mg/dL
same,RALB,[7],2.6 g/dL
same,TBIL,[7],0.04 mg/dL
same,TC,[7],59.4 mg/dL
same,TG,[7],85.2 mg/dL
same,TP,[7],5.4 g/dL
same,gamma-GTP,[7],1.2 IU/L
same,TERMINAL_BW,[8],210.5 g
same,APTT,[8],16.2 s
same,Bas,[8],0%
same,Eos,[8],1%
same,Fbg,[8],206.8 mg/dL
same,Ht,[8],38.4%
same,Lym,[8],76%
same,MCH,[8],21.8 pg
same,MCHC,[8],34.5%
same,MCV,[8],63.3 fL
same,Mono,[8],2.6%
same,Neu,[8],20.2%
same,PT,[8],13.1 s
same,Plat,[8],109.5 x10_4/uL
same,RBC,[8],607 x10_4/ul
same,Ret,[8],7.2%
same,WBC,[8],74.1 x10_2/uL
same,KIDNEY_L,[8],0.9 g
same,KIDNEY_R,[8],1 g
same,KIDNEY_TOTAL,[8],1.9 g
same,LIVER,[8],10.5 g
same,ALP,[8],1720.8 IU/L
same,ALT,[8],53.4 IU/L
same,AST,[8],77.4 IU/L
same,BUN,[8],14.2 mg/dL
same,CRE,[8],0.2 mg/dL
same,Ca,[8],10.7 mg/dL
same,Cl,[8],104.2 meq/L
same,DBIL,[8],0.018 mg/dL
same,GLC,[8],195.4 mg/dL
same,IP,[8],8.6 mg/dL
same,K,[8],4 meq/L
same,LDH,[8],60.4 IU/L
same,Na,[8],142.2 meq/L
same,PL,[8],96.4 mg/dL
same,RALB,[8],2.6 g/dL
same,TBIL,[8],0.026 mg/dL
same,TC,[8],50.2 mg/dL
same,TG,[8],31.4 mg/dL
same,TP,[8],5.2 g/dL
same,gamma-GTP,[8],1.2 IU/L
